The first assay deals with E3- or E4-derived 22 kDa apoE fragment on embryonic chick sympathetic neurons. Kind of assay: Effects of apoE 22 kDa peptides on sympathetic neurons in culture, with dermatan sulfate pre-incubation. The format is cell-based, chicken. As to conditions: 4 μM dermatan sulfate, 10 min pre-incubation; overnight exposure to E3- or E4-derived 22 kDa fragment. The method, then: Since the 22 kDa fragment contains the domain associated with toxicity and corresponds to the major N-terminal proteolytic fragment of apoE, assessment of the efficacy of a compound can first be screened by measuring the inhibition of the 22 kDa toxicity in vitro. The 22 kDa thrombolytic cleavage fragment product of apoE is neurotoxic and is purified from medium of HEK cells transfected with the gene for human apoE4. Neuronal toxicity is then assessed using dissociated embryonic chick sympathetic neurons in 96 well microtiter plates. Following the addition of the fragments, the cultures are incubated overnight. Viability is then assessed by vital dye staining.
Transfected HEK cells are cultured as previously described (LaDu, M. J., et al., J. Biol. Chem. 258:12348-54 (1983)). The apoE is concentrated from conditioned medium by ultrafiltration (10 kDa cut-off membrane, Amicon) followed by heparin column chromatography (heparin-coupled agarose beads, Sigma). […] The wells are washed with fresh F12 medium and images of the stained cells are collected from each well by using a Diaphot inverted fluorescence microscope connected to a Macintosh IIfx computer equipped with a Framegrabber video card. The number of labeled neurons is quantified from the stored images with NIH Image software (version 1.57).
On to dermatan sulfate, for which the “toxicity of 22 kDa apoE fragment in treated neurons” value is recorded as “toxicity is completely ablated”.

The test system of a further assay is apoE peptide toxicity (141-149 domain).
Assay: not given
The settings on record: peptide with second heparin-binding site, lacking the 141-149 sequence; cited from earlier work.
As for “E211-243: apoE peptide containing a second heparin-binding site but lacking the 141-149 sequence (GERLRARMEEMGSRTRDRLDEVKEQVAEVRAKL; UniProt P02649 229-261, looked up, fragment) [reference compound]”, the “bioactivity (toxicity) of apoE peptide” value is “inactive”.

The assay is the same for the next values; noted with them: polyanionic glycosaminoglycans; cited from earlier work.
Take heparan sulfate: the “effect on apoE peptide-mediated toxicity” value is “ablation of peptide-mediated toxicity”.

For the compound heparin [reference compound], the “effect on apoE peptide-mediated toxicity” value is recorded as “ablation of peptide-mediated toxicity”.

As for chondroitin sulfate, the “effect on apoE peptide-mediated toxicity” value was “ablation of peptide-mediated toxicity”.

For another assay, the system named is toxic apoE fragments (22 kDa) on embryonic chick sympathetic neurons. Briefly: Protection of sympathetic neurons against toxic apoE fragments (vital dye survival count). It counts as cell-based, chicken. The settings on record: 10 min pre-incubation with compound, then toxic 22 kDa apoE fragments, overnight, read-out: C50, the concentration required to prevent 50% cell death as compared to control. From the text: The purified apoE was then digested with thrombin and the resulting fragments separated by HPLC gel filtration chromatography (Bio SEC-Bio Rad). After buffer exchange and lyophilization, the purified 22 kDa fragment was subjected to amino acid analysis. For neurotoxicity studies, lumbar sympathetic chain ganglia were isolated from embryonic day nine chicken embryos (Spafas, Inc., Roanoke, Ill.) under sterile conditions in unsupplemented Ham's F12 medium (Sigma). The dissected chains were exposed to trypsin (0.25%) for 20 minutes at 37° C. The trypsin was inactivated by addition of fetal bovine serum. The chains were washed three times with medium and then triturated with flamed Pasteur pipettes to dissociate the cells. The cells were resuspended in Neurobasal medium (Gibco) and plated into 96-well plates pretreated with poly-ornithine. Dishes were incubated at 37° C. with 5% CO2/95% air. Following overnight incubation, the cells were treated with a range of concentrations of various compounds diluted in F12 medium supplemented with 100 μM putrescine, 20 nM progesterone, 100 μg/ml human transferrin, 30 nM selenium and 1% antibiotics (penicillin-streptomycin). The neuronal cells were pre-incubated for 10 min at 37° C. with a predetermined concentration of compound. The toxic fragments were then added to the culture medium while controls used the corresponding vehicle without the toxic fragments. After overnight incubation, the cells were labeled with a vital dye (5-carboxyfluorescein diacetate, acetoxymethyl ester, Molecular Probes, Eugene, Oreg.) for 30 minutes. The wells were washed with fresh F12 medium and images of the stained cells were collected from each well using a Diaphot inverted fluorescence microscope connected to a MacIntosh IIfx computer equipped with a Framegrabber video card.
On to `Cc1cc(-c2ccc(N=Nc3cc(S(=O)(=O)O)c4ccccc4c3N)c(C)c2)ccc1N=Nc1cc(S(=O)(=O)O)c2ccccc2c1N` [benzopurpurin 4b], for which the EC50 is 50 µM.

`Cc1ccc2nc(-c3ccc(N=NNc4ccc(-c5nc6ccc(C)c(S(=O)(=O)O)c6s5)cc4)cc3)sc2c1S(=O)(=O)O` [thiazol yellow G]: the EC50 was 25 µM.

For the compound `COc1cc(-c2ccc(N=Nc3ccc4c(S(=O)(=O)O)cc(S(=O)(=O)O)c(N)c4c3O)c(OC)c2)ccc1N=Nc1ccc2c(S(=O)(=O)O)cc(S(=O)(=O)O)c(N)c2c1O` [Chicago sky blue 6b], the EC50 is 15 µM.

On to “dextran sulfate [dextran sulfate (5 kDa)]”, for which the EC50 worked out at 0.8 µM.

As for `O=S(=O)(O)c1ccccc1N=Nc1c(S(=O)(=O)O)cc2cc(S(=O)(=O)O)c(N=Nc3ccccc3S(=O)(=O)O)c(O)c2c1O` [sulfonazo III], the EC50 turned out to be 45 µM.

Regarding heparan sulfate, the EC50 was found to be 1 µM.

`O=S1(=O)OC(c2cc(Br)c(O)c(Br)c2)(c2cc(Br)c(O)c(Br)c2)c2ccccc21` [bromophenol blue]: the EC50 is 16 µM.

With `O=S(=O)(O)c1ccc(N=C2C=CC(=C(c3ccc(Nc4ccc(S(=O)(=O)O)cc4)cc3)c3ccc(Nc4ccc(S(=O)(=O)O)cc4)cc3)C=C2)cc1` [methyl blue], the EC50 worked out at 20 µM.

With aniline blue, the EC50 turned out to be 25 µM.

On to pentosan sulfate [reference compound], for which the EC50 was 1.5 µM.

Regarding `CCN(Cc1cccc(S(=O)(=O)O)c1)c1ccc(C(=C2C=CC(=[N+](CC)Cc3cccc(S(=O)(=O)[O-])c3)C=C2)c2ccc(S(=O)(=O)O)cc2)cc1` [light green S.F. yellowish], the EC50 came to 40 µM.

As for `O=S(=O)(O)c1ccc(N=Nc2ccc(N=Nc3c(O)c(S(=O)(=O)O)cc4cc(S(=O)(=O)O)ccc34)c(S(=O)(=O)O)c2)cc1` [ponceau S], the EC50 is 5 µM.

`COc1cc(-c2ccc(N=Nc3c(S(=O)(=O)O)cc4cc(S(=O)(=O)O)cc(N)c4c3O)c(OC)c2)ccc1N=Nc1c(S(=O)(=O)O)cc2cc(S(=O)(=O)O)cc(N)c2c1O` [direct blue 15]: the EC50 was found to be 18 µM.

As for `O=S(=O)(O)c1ccc(N=Nc2ccc(N=Nc3c(O)ccc4ccccc34)c(S(=O)(=O)O)c2)cc1` [biebrich scarlet], the EC50 was 40 µM.

As for `Cc1c(C2(c3cc(Br)c(O)c(Br)c3C)OS(=O)(=O)c3ccccc32)cc(Br)c(O)c1Br` [bromocresol green], the EC50 is 25 µM.

For `O=S(=O)(O)c1ccc2c(N=Nc3ccc(S(=O)(=O)O)c4ccccc34)c(O)c(S(=O)(=O)O)cc2c1` [amaranth], the EC50 was 25 µM.

Take `O=C(O)c1cc2ccccc2c(N=Nc2c(O)cc(S(=O)(=O)O)c3ccccc23)c1O` [calconcarboxylic acid]: the EC50 stood at 10 µM.

For the compound `Cc1cc(-c2ccc(N=Nc3ccc4c(S(=O)(=O)O)cc(S(=O)(=O)O)c(N)c4c3O)c(C)c2)ccc1N=Nc1ccc2c(S(=O)(=O)O)cc(S(=O)(=O)O)c(N)c2c1O` [Evan's blue], the EC50 came out at 8 µM.

Turning to potassium polyvinyl sulfate, the EC50 was found to be 0.035 µM.

As for `CCOc1ccc(Nc2ccc(C(=C3C=CC(=[N+](CC)Cc4cccc(S(=O)(=O)[O-])c4)C=C3)c3ccc(N(CC)Cc4cccc(S(=O)(=O)O)c4)cc3)cc2)cc1` [Coomassie brilliant blue R-250], the EC50 came out at 35 µM.

Regarding `CCOc1ccc(Nc2ccc(C(=C3C=CC(=[N+](CC)Cc4cccc(S(=O)(=O)[O-])c4)C=C3C)c3ccc(N(CC)Cc4cccc(S(=O)(=O)O)c4)cc3C)cc2)cc1` [Coomassie brilliant blue G-250], the EC50 worked out at 40 µM.

The same assay, now with this note: Gallus gallus, Sympathetic neuron, 10 min pre-incubation with compound, then toxic 22 kDa apoE fragments, overnight, read-out: C50, the concentration required to prevent 50% cell death as compared to control.
In the case of `Nc1c(S(=O)(=O)O)cc(Nc2ccc(Nc3nc(Cl)nc(Nc4ccccc4S(=O)(=O)O)n3)c(S(=O)(=O)O)c2)c2c1C(=O)c1ccccc1C2=O` [cibacron blue], the EC50 was 20 µM.

As for `Nc1c(/N=N/c2ccc(-c3ccc(/N=N/c4cc(S(=O)(=O)O)c5ccccc5c4N)cc3)cc2)cc(S(=O)(=O)O)c2ccccc12` [congo red], the EC50 stood at 25 µM.

Take `O=C1OC(c2ccc(O)c(S(=O)(=O)O)c2)(c2ccc(O)c(S(=O)(=O)O)c2)c2c(Br)c(Br)c(Br)c(Br)c21` [sulfobromophthalein]: the EC50 came to 32 µM.

`Cc1ccc(C(=O)Nc2ccc(S(=O)(=O)O)c3cc(S(=O)(=O)O)cc(S(=O)(=O)O)c23)cc1NC(=O)c1cccc(NC(=O)Nc2cccc(C(=O)Nc3cc(C(=O)Nc4ccc(S(=O)(=O)O)c5cc(S(=O)(=O)O)cc(S(=O)(=O)O)c45)ccc3C)c2)c1` [suramin sodium, reference compound]: the EC50 stood at 5 µM.

With `O=C(O)C1=CC(=C(c2ccc(O)c(C(=O)O)c2)c2ccc(O)c(C(=O)O)c2)C=CC1=O` [aurintricarboxylic acid], the EC50 was determined as 11 µM.

`Cc1cc(-c2ccc(/N=N/c3c(S(=O)(=O)O)cc4cc(S(=O)(=O)O)cc(N)c4c3O)c(C)c2)ccc1/N=N/c1c(S(=O)(=O)O)cc2cc(S(=O)(=O)O)cc(N)c2c1O` [trypan blue]: the EC50 was determined as 20 µM.

These data come from US20020004493A1, “Method for the treatment of apolipoprotein E related diseases” (priority 1996, published 2002).
